Results on 4 compounds are retold here after the NIST ThermoML archive (doi:10.1016/j.tca.2016.12.008).

Several values for one entry are separate records, joined by “and”; a condition that tells them apart may be missing. Equal values may be shown once. ± gives the expanded uncertainty stated by the source.

For data set [1] the following is noted: for Normal melting temperature: DTA.
Data set [2] is described as follows: Molar enthalpy of transition or fusion. The conditions noted are these: Crystal; DSC.

As for `Oc1ccc2ccccc2c1-c1c(O)ccc2ccccc12` [(1,1'-binaphthalene)-2,2'-diol], the Normal melting temperature in data set [1] (Crystal) amounted to 215.40 ± 0.5 °C. Moreover, the “Molar enthalpy of transition or fusion” value in data set [2] was 7.46 ± 0.215 kcal/mol.
For the compound `CC(C)(C)C(=O)Oc1ccc2ccccc2c1-c1c(OC(=O)C(C)(C)C)ccc2ccccc12` [(1,1'-binaphthalene)-2,2'-diyl bis(2,2-dimethylpropanoate)], in data set [1] (Crystal 1), the Normal melting temperature was 123.80 ± 0.5 °C. Further, in data set [1] (Crystal 2, DSC), the Triple point temperature is 389.55 ± 1.3 K.
For the compound `Oc1ccc2ccccc2c1-c1c(O)ccc2ccccc12` [(S)-(1,1'-binaphthalene)-2,2'-diol], in data set [1] (Crystal), the Normal melting temperature was 209.20 ± 0.5 °C and 208.00 ± 0.5 °C. In addition, in data set [2], the “Molar enthalpy of transition or fusion” value was determined as 7.39 ± 0.167 kcal/mol.
The mass density is mass per unit of volume. On to `CC(C)(C)C(=O)Oc1ccc2ccccc2c1-c1c(OC(=O)C(C)(C)C)ccc2ccccc12`, for which the mass density in data set [1] (293 K, 101.33 kPa, Crystal, X-ray diffraction) turned out to be 1173 ± 6 kg/m3. The Normal melting temperature in data set [1] (Crystal) is 156.20 ± 0.9 °C and 155.50 ± 0.5 °C. Further, in data set [1] (Glass, DSC), the Glass transition temperature was 25.00 ± 2 °C. Moreover, the “Molar enthalpy of transition or fusion” value in data set [2] stood at 6.81 ± 0.191 kcal/mol.
